The values below come from DBAASP.

What all share (test): ≥ marks a high value that may be exact or a test limit, other limits are often not marked, values filed in µg/mL are converted to µM
In test [1] the test system is Staphylococcus aureus ATCC 25923.
The subject of test [2] is Escherichia coli ATCC 25922.
The subject of test [3] is Staphylococcus aureus ATCC 29213.
The test system of test [4] is Pseudomonas aeruginosa ATCC 27853.

Broadly, the MIC is the least concentration at which growth counts as inhibited. Low values mean greater potency, high ones weaker potency.

Values after ≈ are worked out from the molar mass of the structure shown. Values joined by “and” are separate entries in the source; they are usually repeats but may differ in a detail not shown here. Identical values can stand only once.

As for `CC[C@H](C)[C@H](NC(=O)CNC(=O)[C@@H](NC(=O)[C@H](CCCCN)NC(=O)[C@@H](NC(=O)[C@H](CCCCN)NC(=O)CN)C(C)C)[C@@H](C)CC)C(=O)N[C@@H](CC(N)=O)C(=O)NCC(=O)N[C@@H](Cc1ccccc1)C(=O)NCC(=O)N[C@@H](CCCN=C(N)N)C(=O)N[C@H](C(=O)NCC(=O)N[C@@H](CCCN=C(N)N)C(=O)N[C@@H](CC(C)C)C(=O)N[C@H](C(=O)N[C@@H](C)C(=O)O)C(C)C)[C@@H](C)CC` [GKVKIGINGFGRIGRLVA], the MIC came to 276 µM (≈ 512 µg/mL) in test [1] and 69 µM (≈ 128 µg/mL) in test [2].
For the compound `CC(C)C[C@H](NC(=O)[C@H](C)NC(=O)[C@H](CCCCN)NC(=O)[C@H](CCCCN)NC(=O)[C@H](CC(C)C)NC(=O)[C@H](CC(C)C)NC(=O)[C@H](CCCCN)NC(=O)[C@H](CC(C)C)NC(=O)[C@H](CC(C)C)NC(=O)[C@H](CCCCN)NC(=O)[C@H](CCCCN)NC(=O)[C@@H](N)CC(C)C)C(=O)N[C@@H](CCCCN)C(=O)N[C@@H](CC(C)C)C(=O)N[C@@H](C)C(=O)NCC(=O)O` [LKKLLKLLKKALKLAG], the MIC in test [2] and in test [3] was 5 µM (≈ 8.89 µg/mL) in each case.
Take `CC[C@H](C)[C@H](NC(=O)[C@H](C)NC(=O)[C@@H](NC(=O)[C@H](C)NC(=O)[C@H](CCCCN)NC(=O)[C@H](C)NC(=O)[C@H](CC(C)C)NC(=O)[C@H](CCCCN)NC(=O)CNC(=O)[C@H](CC(C)C)NC(=O)[C@@H](NC(=O)[C@H](CO)NC(=O)CNC(=O)[C@H](C)NC(=O)[C@@H](NC(=O)[C@H](CO)NC(=O)[C@H](C)NC(=O)[C@H](CCSC)NC(=O)CN)[C@@H](C)O)C(C)C)C(C)C)C(=O)NCC(=O)N[C@@H](C)C(=O)N[C@@H](CC(C)C)C(N)=O` [GMASTAGSVLGKLAKAVAIGAL]: the MIC in test [1] and in test [2] was above 200 µM in each case.
On to `CC(C)C[C@H](NC(=O)[C@H](CC(=O)O)NC(=O)[C@@H](NC(=O)[C@H](CCCCN)NC(=O)[C@H](CC(C)C)NC(=O)[C@@H](N)CCC(N)=O)C(C)C)C(=O)N[C@@H](Cc1c[nH]c2ccccc12)C(=O)NCC(=O)N[C@H](C(=O)N[C@@H](CCCN=C(N)N)C(N)=O)[C@@H](C)O` [QLKVDLWGTR], for which the MIC in test [1], in test [2] and in test [4] was above 100 µM throughout.
For the compound `CC(C)C[C@H](NC(=O)[C@H](CCCCN)NC(=O)[C@H](C)NC(=O)[C@H](CC(C)C)NC(=O)[C@H](CCCCN)NC(=O)[C@H](CCCCN)NC(=O)[C@H](C)NC(=O)[C@H](CC(C)C)NC(=O)[C@H](CCCCN)NC(=O)[C@H](C)NC(=O)[C@H](CC(C)C)NC(=O)[C@H](CCCCN)NC(=O)[C@H](CCCCN)NC(=O)[C@H](C)NC(=O)[C@H](CC(C)C)NC(=O)[C@H](CCCCN)NC(=O)[C@H](C)NC(=O)[C@H](CC(C)C)NC(=O)[C@@H](N)CCCCN)C(=O)N[C@@H](C)C(=O)N[C@@H](CCCCN)C(N)=O` [KLAKLAKKLAKLAKKLAKLAK], the MIC in test [1], in test [2] and in test [4] was 4 µM (≈ 9.1 µg/mL) in each case.
As to `NC(=O)[C@H](Cc1c[nH]c2ccccc12)NC(=O)[C@H](CCCN=C(N)N)NC(=O)[C@H](Cc1ccc(O)cc1)NC(=O)[C@H](CCCN=C(N)N)NC(=O)[C@H](Cc1c[nH]c2ccccc12)NC(=O)[C@@H](N)CCCN=C(N)N` [RWRYRW], the values for the MIC in test [1], in test [2] and in test [4] were 9.78 µM (≈ 9.99 µg/mL), 48.9 µM (≈ 50 µg/mL) and 78.3 µM (≈ 79.9 µg/mL), respectively.
As to `CC[C@H](C)[C@H](NC(=O)[C@H](Cc1ccc(O)cc1)NC(=O)[C@H](CCC(N)=O)NC(=O)[C@H](CC(C)C)NC(=O)[C@H](C)NC(=O)[C@H](CCCCN)NC(=O)[C@H](CCCCN)NC(=O)[C@H](CCSC)NC(=O)[C@H](CCCCN)NC(=O)[C@H](CCCCN)NC(=O)[C@H](CCCCN)NC(=O)[C@H](CCCN=C(N)N)NC(=O)[C@H](CCCN=C(N)N)NC(=O)[C@H](Cc1ccc(O)cc1)NC(=O)[C@@H](N)CCCN=C(N)N)C(=O)N[C@@H](CCCCN)C(=O)N[C@@H](CC(C)C)C(N)=O` [RYRRKKKMKKALQYIKL], the MIC in test [2] and in test [4] was above 100 µM each time.
`CC[C@H](C)[C@H](NC(=O)[C@H](CC(C)C)NC(=O)[C@H](C)NC(=O)[C@@H]1CCCN1C(=O)[C@H](CC(C)C)NC(=O)CNC(=O)[C@@H](NC(=O)[C@@H](NC(=O)[C@H](CC(C)C)NC(=O)[C@@H](NC(=O)[C@H](CCCCN)NC(=O)[C@H](CCCCN)NC(=O)[C@H](C)NC(=O)[C@H](C)NC(=O)[C@H](CO)NC(=O)[C@@H](NC(=O)[C@H](CC(C)C)NC(=O)[C@H](CCCCN)NC(=O)[C@H](CCCCN)NC(=O)[C@@H](NC(=O)[C@H](Cc1ccccc1)NC(=O)[C@H](CCCCN)NC(=O)[C@H](CCCCN)NC(=O)[C@H](Cc1c[nH]c2ccccc12)NC(=O)[C@@H](N)CCCCN)[C@@H](C)CC)[C@@H](C)O)C(C)C)[C@@H](C)O)[C@@H](C)O)C(=O)N[C@@H](CO)C(=O)O` [KWKKFIKKLTSAAKKVLTTGLPALIS] showed an MIC in test [4] of 4 µM (≈ 11.5 µg/mL). That is a single-digit micromolar value.
Consider `CC(C)C[C@H](NC(=O)[C@H](CCCCN)NC(=O)[C@H](C)NC(=O)[C@H](CC(C)C)NC(=O)[C@@H](N)CCCCN)C(=O)N[C@@H](C)C(=O)N[C@@H](CCCCN)C(N)=O` [KLAKLAK], for which the MIC in test [1], in test [2] and in test [4] was above 95 µM throughout.
For `CC(C)C[C@H](NC(=O)[C@H](Cc1c[nH]c2ccccc12)NC(=O)[C@H](C)NC(=O)CNC(=O)[C@H](Cc1c[nH]c2ccccc12)NC(=O)[C@H](CC(N)=O)NC(=O)[C@@H](N)CC(C)C)C(=O)N[C@@H](CCCCN)C(=O)N[C@@H](Cc1cnc[nH]1)C(=O)N[C@@H](Cc1c[nH]c2ccccc12)C(=O)N[C@@H](Cc1c[nH]c2ccccc12)C(=O)N[C@@H](CCCCN)C(=O)O` [LNWGAWLKHWWK], the MIC in test [4] is 32 µM (≈ 52 µg/mL).
Regarding `CC[C@H](C)[C@H](NC(=O)[C@H](CCCN=C(N)N)NC(=O)[C@H](CCCCN)NC(=O)[C@H](CC(C)C)NC(=O)[C@H](CC(C)C)NC(=O)[C@H](C)N)C(=O)N[C@@H](CCCCN)C(=O)N[C@H](C(=O)N[C@@H](CC(C)C)C(=O)N[C@@H](CC(C)C)C(N)=O)[C@@H](C)O` [ALLKRIKTLL], the MIC in test [1] and in test [2] was above 18 µM in each case.
With `CC(C)C[C@H](NC(=O)[C@H](C)NC(=O)[C@@H](N)CO)C(=O)N[C@H](C(=O)NCC(=O)N[C@H]1CSSC[C@@H](C(=O)N[C@@H](Cc2ccccc2)C(=O)NCC(=O)N[C@@H](CCCN=C(N)N)C(=O)O)NC(=O)[C@@H]2CCCN2C(=O)[C@H](CCCCN)NC(=O)[C@@H]2CCCN2C(=O)[C@@H]2CCCN2C(=O)[C@H](Cc2ccc(O)cc2)NC(=O)[C@H](CO)NC(=O)[C@H](CCCCN)NC(=O)[C@H]([C@@H](C)O)NC(=O)CNC1=O)C(C)C` [SALVGCGTKSYPPKPCFGR], in test [1], the MIC is 12.7 µM (≈ 25 µg/mL).
On to `CSCC[C@H](NC(=O)[C@H](CCCN=C(N)N)NC(=O)[C@@H](N)Cc1ccc(O)cc1)C(=O)N[C@@H](Cc1c[nH]c2ccccc12)C(=O)N[C@@H](CCCN=C(N)N)C(=O)N[C@@H](Cc1c[nH]c2ccccc12)C(=O)N[C@@H](C)C(=O)N[C@@H](Cc1c[nH]c2ccccc12)C(=O)N[C@@H](CCCN=C(N)N)C(=O)N[C@@H](Cc1c[nH]c2ccccc12)C(=O)N[C@@H](CCCN=C(N)N)C(N)=O` [YRMWRWAWRWR], for which the figures for the MIC in test [1], in test [2] and in test [4] were 1.43 µM (≈ 2.5 µg/mL), 5.7 µM (≈ 9.99 µg/mL) and 11.4 µM (≈ 20 µg/mL), respectively.
In the case of `CC(C)C[C@H](NC(=O)[C@H](CCCN=C(N)N)NC(=O)[C@H](CCCN=C(N)N)NC(=O)[C@H](CC(C)C)NC(=O)[C@H](Cc1c[nH]c2ccccc12)NC(=O)[C@H](CCCN=C(N)N)NC(=O)[C@H](Cc1c[nH]c2ccccc12)NC(=O)[C@@H](NC(=O)[C@H](CCCCN)NC(=O)[C@H](CCCN=C(N)N)NC(=O)[C@@H](N)CC(C)C)C(C)C)C(N)=O` [LRKVWRWLRRL], the MIC in test [1] stood at 10 µM (≈ 15.8 µg/mL).
For the compound `CC[C@H](C)[C@H](NC(=O)[C@@H](NC(=O)[C@@H](NC(=O)CNC(=O)[C@H](C)NC(=O)[C@@H](NC(=O)[C@H](CC(N)=O)NC(=O)[C@@H](NC(=O)[C@H](C)NC(=O)[C@H](CC(C)C)NC(=O)[C@H](CC(N)=O)NC(=O)[C@H](CCCCN)NC(=O)[C@@H](NC(=O)[C@@H](NC(=O)[C@H](CO)NC(=O)[C@H](CC(C)C)NC(=O)[C@H](Cc1ccccc1)NC(=O)CN)[C@@H](C)O)C(C)C)[C@@H](C)O)C(C)C)[C@@H](C)O)C(C)C)C(=O)N[C@@H](CC(=O)O)C(=O)N[C@H](C(=O)N[C@@H](CC(C)C)C(=O)N[C@@H](CCCCN)C(=O)N[C@H]1CSSC[C@@H](C(=O)N[C@@H](CCCN=C(N)N)C(=O)N[C@@H](CO)C(=O)O)NC(=O)CNC(=O)CNC(=O)[C@H]([C@@H](C)O)NC(=O)[C@H](C(C)C)NC(=O)[C@H](CCCCN)NC1=O)[C@@H](C)O` [GFLSTVKNLATNVAGTVIDTLKCKVTGGCRS], the MIC in test [2] came out at 120 µM (≈ 378 µg/mL).
As to `CC(C)[C@H](NC(=O)[C@H](CC(=O)O)NC(=O)[C@H](CO)NC(=O)[C@@H](N)CCCCN)C(=O)N[C@@H](CCCN=C(N)N)C(=O)N[C@@H](CCCN=C(N)N)C(=O)N[C@@H](Cc1c[nH]c2ccccc12)C(=O)N[C@@H](CCCN=C(N)N)C(=O)N[C@@H](CO)C(=O)N[C@@H](CCCN=C(N)N)C(=O)N[C@@H](Cc1ccc(O)cc1)C(N)=O` [KSDVRRWRSRY], the MIC in test [1], in test [2] and in test [4] was above 100 µM throughout.
Regarding `CC[C@H](C)[C@H](NC(=O)[C@H](CCCN=C(N)N)NC(=O)[C@H](CCCCN)NC(=O)[C@H](CC(C)C)NC(=O)[C@H](CC(C)C)NC(=O)CN)C(=O)N[C@@H](CCCCN)C(=O)N[C@@H](C)C(=O)N[C@@H](CC(C)C)C(=O)N[C@@H](CC(C)C)C(N)=O` [GLLKRIKALL], the MIC in test [1] came out at 7.11 µM (≈ 7.99 µg/mL); in test [2], 14.2 µM (≈ 16 µg/mL).
Take `CC(C)C[C@H](NC(=O)[C@H](CC(C)C)NC(=O)[C@H](CCCCN)NC(=O)[C@H](CCCCN)NC(=O)[C@H](C)NC(=O)[C@H](CC(C)C)NC(=O)[C@H](CCCCN)NC(=O)[C@H](CC(C)C)NC(=O)[C@@H](N)Cc1ccccc1)C(N)=O` [FLKLAKKLL]: the MIC in test [4] was 59.6 µM and 119 µM.
